Assay results: ChEMBL document CHEMBL5518165, “M335, a novel small-molecule STING agonist activates the immune response and exerts antitumor effects” (Eur J Med Chem, 2024)
Active and inactive are the calls of the source. No cut-off for these calls is given here.

Legend:
[1] = molecular target: Stimulator of interferon genes protein (Homo sapiens) (UniProt Q86WV6); test: Agonist activity at STING in human THP-1 cells assessed as increase in LC3 protein level by Western blotting analysis; format: cell-based
Chain of Stimulator of interferon genes protein (Homo sapiens) (Q86WV6 whole entry): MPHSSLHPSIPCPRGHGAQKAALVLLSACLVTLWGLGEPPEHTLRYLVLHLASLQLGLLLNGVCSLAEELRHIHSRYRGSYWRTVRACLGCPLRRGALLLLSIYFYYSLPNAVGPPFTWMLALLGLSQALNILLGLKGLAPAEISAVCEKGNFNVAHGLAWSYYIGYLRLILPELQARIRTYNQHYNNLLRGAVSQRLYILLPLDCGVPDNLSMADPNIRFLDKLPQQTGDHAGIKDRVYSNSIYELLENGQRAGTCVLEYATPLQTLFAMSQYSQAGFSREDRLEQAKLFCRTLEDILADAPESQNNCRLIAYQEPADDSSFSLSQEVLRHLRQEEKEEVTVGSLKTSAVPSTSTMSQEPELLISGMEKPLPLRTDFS

[2] = molecular target: Stimulator of interferon genes protein (Homo sapiens) (UniProt Q86WV6); test: Agonist activity at STING in human THP-1 cells assessed as increase in TBK1 phosphorylation by Western blotting analysis; format: cell-based
[3] = molecular target: Stimulator of interferon genes protein (Homo sapiens) (UniProt Q86WV6); test: Agonist activity at STING in human THP-1 cells assessed as increase in IRF3 phosphorylation by Western blotting analysis; format: cell-based
[4] = molecular target: T1, Stimulator of interferon genes protein (Mus musculus) (UniProt Q3TBT3); test: Agonist activity at STING in MEF cells assessed as increase in STING oligomerization by Western blotting analysis; format: cell-based; details: filed as agonist
T1 sequence (whole entry): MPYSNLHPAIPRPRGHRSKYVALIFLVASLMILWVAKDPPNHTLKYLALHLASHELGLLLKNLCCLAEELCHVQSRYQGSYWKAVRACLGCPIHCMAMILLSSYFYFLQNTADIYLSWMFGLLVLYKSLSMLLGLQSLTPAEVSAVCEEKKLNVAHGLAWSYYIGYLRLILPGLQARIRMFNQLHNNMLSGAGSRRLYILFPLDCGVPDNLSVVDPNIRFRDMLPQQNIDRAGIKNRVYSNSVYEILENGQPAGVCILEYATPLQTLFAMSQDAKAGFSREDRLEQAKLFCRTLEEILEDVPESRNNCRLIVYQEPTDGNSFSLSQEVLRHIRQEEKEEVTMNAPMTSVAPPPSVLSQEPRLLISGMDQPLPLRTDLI

[5] = molecular target: T1, Stimulator of interferon genes protein (Mus musculus); test: Agonist activity at STING in MEF cells assessed as STING translocation by measuring aggregation of green fluorescence incubated for 1 hr by laser scanning confocal microscope analysis; format: cell-based; details: filed as agonist
[6] = molecular target: T1, Stimulator of interferon genes protein (Mus musculus); test: Agonist activity at STING in MEF cells assessed as STING translocation to golgi apparatus by measuring increase in red fluorescence incubated for 1 hr by laser scanning confocal microscope analysis; format: cell-based; details: filed as agonist
[7] = molecular target: T1, Stimulator of interferon genes protein (Mus musculus); test: Agonist activity at STING in MEF cells assessed as nuclear transposition of phosphorylated IRF3 incubated for 1 hr by laser scanning confocal microscope analysis; format: cell-based; details: filed as agonist
Human alphaherpesvirus 1 = test: Antiviral activity against HSV-1-GFP infected in human STING-deficient WT HeLa cells assessed as reduction in viral infection by fluorescent microscopy analysis; format: functional, organism-based

With CC(NC(=O)CC(c1ccccc1)c1ccccc1)c1ccccc1 (centres undefined) the Activity [1] was “inactive”, the Activity [2] was “inactive” and the Activity [3] was “inactive”.
In the case of C[C@@H](NCCC(c1ccccc1)c1ccccc1)c1ccccc1, the Activity [1] is reported as “inactive”, the Activity [2] is reported as “inactive” and the Activity [3] is reported as “inactive”.
For C[C@H](NCCC(c1ccccc1)c1ccccc1)c1ccccc1, the Activity [1] was “inactive”, the Activity [2] was “inactive” and the Activity [3] was “inactive”.
Nc1nc2c(ncn2[C@@H]2O[C@@H]3COP(=O)(O)O[C@H]4[C@@H](O)[C@H](n5cnc6c(N)ncnc65)O[C@@H]4COP(=O)(O)O[C@@H]2[C@@H]3O)c(=O)[nH]1 was tested, and the Activity [4] was “Active”, the Activity [5] was “Active” and the Activity [6] was “Active”. The Activity [7] was “Active” and the Activity (Human alphaherpesvirus 1) was “inactive”.
